# Assays:
# Colinus virginianus = settings: oral
# Tagia sp. = settings: chronic/long-term; duration: 56 days
# Rattus norvegicus = settings: for LD50: acute, gavage, mortality
# Oryctolagus sp. = settings: reproduction developmental; clinical signs
# Folsomia candida = settings: chronic/long-term; duration: 28 days; reproduction
# Oncorhynchus mykiss = settings: acute; duration: 96 hours; mortality
# Apis mellifera = settings: acute, duration: 48 hours, mortality
# Pimephales promelas = settings: chronic/long-term; duration: 35 days; reproduction
# Daphnia magna = settings: chronic/long-term; duration: 21 days; reproduction
# Landoltia sp. = settings: acute; duration: 7 days; other
# Lepomis macrochirus = settings: acute; duration: 96 hours; mortality
smiles,measurement,setting,value
CCCOc1nn(C(=O)[N-]S(=O)(=O)c2ccccc2C(=O)OC)c(=O)n1C.[Na+] [Propoxycarbazone-sodium],LD50,"Colinus virginianus; acute, mortality",> 2000 mg/kg-day
same,NOEL,"Colinus virginianus; reproduction developmental, duration: 25 weeks, diet, reproduction",45 mg/kg-day
same,NOEC,Tagia sp.,1.25 mg/kg
same,LD50,Rattus norvegicus; oral,> 5000 mg/kg-day
same,NOAEL,"Rattus norvegicus; chronic, duration: 2 years, clinical chemistry",43 mg/kg-day
same,NOAEL,Oryctolagus sp.,100 mg/kg-day
same,NOEC,Folsomia candida,500 mg/kg
same,LC50,Oncorhynchus mykiss,> 77.2 µg/mL
same,LD50,Apis mellifera; dermal,> 100 µg/piece
same,LD50,"Apis mellifera; oral, unspecified",> 110 µg/piece
same,NOEC,Pimephales promelas,5.83 mg/L
same,NOEC,Daphnia magna,13.8 mg/L
CCCOc1nn(C(N)=O)c(=O)n1C,NOEC,Tagia sp.,316 mg/kg
same,NOEC,Folsomia candida,10 mg/kg
CCCOc1nn(C(=O)NS(=O)(=O)c2ccccc2C(=O)O)c(=O)n1C,NOEC,Landoltia sp.,14.2 mg/L
same,LC50,Lepomis macrochirus,> 87.7 µg/mL
COC(=O)c1ccccc1S(=O)(=O)NC(=O)n1nc(OCC(C)O)n(C)c1=O (stereo not given) [Propoxycarbazone-2-hydroxypropoxy],LD50,Rattus norvegicus; oral,> 5000 mg/kg-day
same,NOAEL,"Rattus norvegicus; short-term, duration: 28 days, oral, diet",> 880 mg/kg-day
"O=C1NS(=O)(=O)c2cccc(O)c21 [4-hydroxy-1H-1,2-benzisothiazole-1,1,3(2H)-trione]",NOEC,Tagia sp.,5 mg/kg
same,NOEC,Folsomia candida,10 mg/kg

# Source: EPA's ToxValDB 9.5 (doi:10.2903/j.efsa.2016.4612)
